Experimental findings from PubChem BioAssay (NCI) are described below.

Test systems include KM12 colon; A549 NSCLC; UACC-62 melanoma; OVCAR-8 ovarian; SN12C renal; SR leukemia; MOLT-4 leukemia; RPMI-8226 leukemia; MCF7 breast.
Experiment in all cases: inhibition of tumour cell growth, NCI panel, 48 h

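Step 1: Grow cells in 96-well plates. Step 2: Expose to compound for 48 hours at 5 concentrations. Step 3: Interpolate endpoints linearly; if unreached, use highest concentration. Definition used: TGI = concentration required for complete inhibition of growth.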 A value given as a limit tells only on which side of the number the result lay.

Turning to `Nc1ncnc2c1ncn2CCCC(c1ccccc1)P(=O)(O)O` (configuration not stated), the TGI in the assay with KM12 colon, in the assay on A549 NSCLC, with UACC-62 melanoma, with OVCAR-8 ovarian, in the assay with SN12C renal and in the assay with SR leukemia was above 100 µM in each case.

In the case of `N=c1n(CC(=O)NC23CC4CC(CC(C4)C2)C3)c2ccccc2n1CC(=O)NC12CC3CC(CC(C3)C1)C2`, the TGI came to 2.98 µM in the assay on KM12 colon; 6 µM with MOLT-4 leukemia; 3.45 µM in the assay with UACC-62 melanoma; 6.07 µM with RPMI-8226 leukemia; 3.13 µM in the assay on OVCAR-8 ovarian; 3.45 µM in the assay on SN12C renal. This molecule also displayed a TGI in the assay with SR leukemia of 4.51 µM.

On to `Cc1c(-c2coc(-c3ccccc3)n2)c(=O)n(-c2ccccc2)n1C`, for which the TGI with KM12 colon was above 100 µM; in the assay on A549 NSCLC, above 100 µM; with MOLT-4 leukemia it was 86.9 µM; with RPMI-8226 leukemia, above 100 µM; in the assay on OVCAR-8 ovarian, above 100 µM; with SN12C renal it was above 100 µM. Besides, the TGI with SR leukemia was above 100 µM.

Consider `CO[C@H]1CC[C@]2(C)C3=CC[C@@]4(C)C(CC[C@@H]4C(C)CC[C@@H](C)C(C)C)C(=CCC2C1)O3` (some centres not stated), for which the TGI with KM12 colon, in the assay on A549 NSCLC, with MOLT-4 leukemia, with UACC-62 melanoma, in the assay on RPMI-8226 leukemia and with OVCAR-8 ovarian was above 25 µM each time. Besides, the TGI with SN12C renal and in the assay on SR leukemia was above 25 µM in each case.

As to `Cc1ccc2n(c1)cc(-c1ccc(/C=N/NC(=N)N/N=C/c3ccc(-c4cn5cc(C)ccc5[n+]4C)cc3)cc1)[n+]2C`, the TGI in the assay with KM12 colon, in the assay with A549 NSCLC, in the assay with MOLT-4 leukemia, in the assay on MCF7 breast, in the assay with RPMI-8226 leukemia and in the assay on OVCAR-8 ovarian was above 100 µM each time. In addition, the TGI in the assay on SN12C renal and in the assay on SR leukemia was above 100 µM throughout.

As for `CCCCCCCCCC(O)CC(=O)c1c(O)cccc1O` (configuration not stated), the TGI in the assay with KM12 colon was determined as 40.8 µM; in the assay on A549 NSCLC, 55.1 µM; in the assay on MOLT-4 leukemia it was 41.6 µM; in the assay with MCF7 breast it was 50.3 µM; in the assay with RPMI-8226 leukemia it was 45.2 µM; with OVCAR-8 ovarian it was 38.6 µM. The TGI in the assay with SN12C renal was 63.9 µM.

On to `CC(C(=O)NCCNC(=O)CCC(=O)N(C)O)C(=O)NCCNC(=O)CCC(=O)N(C)O`, for which the TGI in the assay on KM12 colon, in the assay on A549 NSCLC, in the assay on MOLT-4 leukemia, with UACC-62 melanoma, in the assay on MCF7 breast and in the assay with RPMI-8226 leukemia was above 100 µM throughout. Also, the TGI in the assay on OVCAR-8 ovarian and with SR leukemia was above 100 µM in each case.

As to `Brc1c2nc3ccccc3nc2n2ccc3ccccc3c12`, the TGI in the assay on KM12 colon, in the assay with A549 NSCLC, in the assay on MOLT-4 leukemia, in the assay with UACC-62 melanoma, in the assay with RPMI-8226 leukemia and in the assay on OVCAR-8 ovarian was above 100 µM throughout. The TGI in the assay with SN12C renal and in the assay with SR leukemia was above 100 µM in each case.

Take `Cc1cc(Br)cc(C)c1NC(=O)C(=O)C(C(=O)c1ccncc1)C1OC(=O)c2ccccc21` (configuration not stated): the TGI with KM12 colon, in the assay with A549 NSCLC, in the assay on MOLT-4 leukemia, in the assay on UACC-62 melanoma, in the assay with RPMI-8226 leukemia and in the assay on OVCAR-8 ovarian was above 100 µM each time. For the same molecule, the TGI in the assay with SN12C renal and in the assay with SR leukemia was above 100 µM each time.

On to `N#CNC(=NCc1ccccc1)NCCc1c[nH]c2ccccc12`, for which the TGI with KM12 colon, in the assay with A549 NSCLC, with MOLT-4 leukemia, with UACC-62 melanoma, in the assay with RPMI-8226 leukemia and in the assay with OVCAR-8 ovarian was above 100 µM each time. Also, the TGI in the assay with SN12C renal and in the assay on SR leukemia was above 100 µM each time.

Consider `CCNC(=O)NNc1ncnc2c1c(-c1ccc(Cl)cc1)cn2-c1ccc(C)cc1`, for which the TGI worked out at 35 µM with KM12 colon; 37.2 µM in the assay on A549 NSCLC; 45.4 µM with MOLT-4 leukemia; 33.3 µM with UACC-62 melanoma; 28.8 µM in the assay on OVCAR-8 ovarian; 30.3 µM in the assay on SN12C renal. This molecule displayed a TGI with SR leukemia of 43.3 µM.

Turning to `CC(C)(C)c1ccc(O)c(C(c2ccc([N+](=O)[O-])cc2)c2cc(C(C)(C)C)ccc2O)c1`, the TGI in the assay on A549 NSCLC was 3.77 µM; in the assay with MOLT-4 leukemia it was 5.14 µM; in the assay with UACC-62 melanoma it was 3.2 µM; in the assay on MCF7 breast, 3.83 µM; with RPMI-8226 leukemia, 4.98 µM; in the assay with OVCAR-8 ovarian it was 7.82 µM. In addition, the TGI in the assay with SN12C renal stood at 4.02 µM; in the assay on SR leukemia it was 5.47 µM.

For `COc1cc(N)c2[nH]c3c(C)ccc(C)c3c2c1`, the TGI in the assay with KM12 colon, in the assay on A549 NSCLC, with MOLT-4 leukemia, in the assay on RPMI-8226 leukemia, in the assay with OVCAR-8 ovarian and in the assay with SN12C renal was above 100 µM throughout. The same molecule yielded a TGI in the assay with SR leukemia above 100 µM.

For `COc1cc2c(c(O)c1C)C(=O)CC(c1ccccc1)O2` (configuration not stated), the TGI with KM12 colon, with A549 NSCLC, in the assay with MOLT-4 leukemia, in the assay with UACC-62 melanoma, with OVCAR-8 ovarian and in the assay with SN12C renal was above 100 µM in each case.

On to `COC1=CC(=O)C2C(C1=O)[C@@H]1c3ccccc3OC(C)(C)[C@H]21` (some centres not stated), for which the TGI was above 100 µM with KM12 colon; above 100 µM with A549 NSCLC; 41.2 µM in the assay on MOLT-4 leukemia; 72.2 µM in the assay with RPMI-8226 leukemia; 42.2 µM with OVCAR-8 ovarian.

Turning to `Cc1ccc(S(=O)(=O)NC(=O)NCCc2ccc(O)c(O)c2)cc1`, the TGI in the assay on KM12 colon, in the assay with A549 NSCLC, with MOLT-4 leukemia, in the assay with UACC-62 melanoma, in the assay on MCF7 breast and with RPMI-8226 leukemia was above 100 µM in each case. In addition, the TGI in the assay with OVCAR-8 ovarian and in the assay with SR leukemia was above 100 µM in each case.

Regarding `C=CC(C)(C)C1(CC(OC)OC)C(=O)N(C)c2ccccc21` (configuration not stated), the TGI with KM12 colon, in the assay on A549 NSCLC, with UACC-62 melanoma, in the assay on MCF7 breast, with RPMI-8226 leukemia and in the assay with OVCAR-8 ovarian was above 25 µM each time. Also, the TGI in the assay with SN12C renal and in the assay with SR leukemia was above 25 µM each time.

`CC1(C)OC2CC3COC(=O)C3CC2O1` (configuration not stated): the TGI in the assay with KM12 colon, with A549 NSCLC, with MOLT-4 leukemia, in the assay on UACC-62 melanoma, with RPMI-8226 leukemia and in the assay with OVCAR-8 ovarian was above 100 µM throughout. Moreover, the TGI in the assay with SN12C renal and in the assay with SR leukemia was above 100 µM throughout.
